# According to patent US9889234B2, “Scaffold for hard tissue regeneration containing active ingredient for treating osteoporosis and preparing method thereof” (KOREA INSTITUTE OF MACHINERY AND MATERIALS, priority 2014, dated 2018):
# Key:
# MC3T3-E1 cells = assay: Osteoblast proliferation activity, MTS assay, drug in medium; format: cell-based
# Protocol: MC3T3-E1 cells (MC3T3-E1 Subclone 4, ATCC CRL-2593, obtained from ATCC) were cultured in α-MEM (α-Minimum Essential Medium, GIBCO) supplemented with FBS (Fetal Bovine Serum) and penicillin/streptomycin under the standard culture condition (37° C., 5% CO2). When the cells were grown to 70˜80% confluency, the cells were trypsinized. Then, the cells were collected by centrifugation.
# The collected MC3T3-E1 cells were seeded at the density of 1.0×10^4 cells, followed by standard culture for 2 hours. The medium containing Quercetein at the concentrations of 0, 1, 10, 50, 100, and 200 μm was added thereto.
# To observe the metabolic activity of the seeded MC3T3-E1 cells, colorimetric 3-(4,5-dimethylthiazole-2-yl)-5-(3-carboxymethoxyphenol)-2-(4-sulfophenyl)-2H-tetrazolium (MTS) assay (CellTiter 96® AQeous One solution Cell Proliferation Assay, Promega) was performed according to the manufacturer's instruction. The MTS tetrazolium compound is converted biologically and dissolved in the tissue culture medium by the cells into a formazan product displaying highest absorbance at 490 nm.
# The following experiment was performed by the same manner as described in Experimental Example <2-1> except that Genistein was used instead of Quercetein.
# [1] = Solubility of the active ingredient; format: physicochemical
# [2] = tested on: RAW 264.7 cells, the multinuclear osteoclasts treated with RANKL; assay: Osteoclast proliferation activity, drug in medium; format: cell-based; conditions: for inhibition of osteoclast proliferation, ranking among Quercetein, Genistein, Alendronate: same dose; for proliferation of osteoclasts: compared with the case not treated, 1 μM or 200 μM
# [3] = Drug releasing characteristics of the active ingredient from the scaffold; format: physicochemical
# Protocol: To evaluate the drug releasing characteristics of the active ingredient included in the scaffold, the scaffold for hard tissue regeneration (containing Quercetein by 200 μm/scaffold) prepared in Example 1 was dipped in body fluid like PBS (phosphate buffered saline) or de-ionized water in a 37° C. shaker. Sampling of the solution was performed hourly and the concentration of Quercetein released in the solution was measured. Quercetein is a hydrophobic material, so that it is very difficult to detect the concentration by dissolving. To evaluate the drug releasing activity in a solution where the active material is dissolved, the experiment was equally performed with ethanol, the dissolving solvent.
# The following experiment was performed by the same manner as described in Example <1-1> except that the scaffold for hard tissue regeneration (containing Genistein by 200 μm/scaffold) prepared in Example 3 instead of the scaffold for hard tissue regeneration (containing Quercetein by 200 μm/scaffold) prepared in Example 1.
# [4] = determined from the proliferation of osteoblasts
solubility in an aqueous solution [1],"Quercetein released ([3]; from scaffold of Example 1 (200 μm/scaffold), ethanol, 37° C. shaker, over 40 days, without early acute release)","Quercetein released ([3]; from scaffold of Example 1, de-ionized water and PBS, 37° C., early 20 days)","Quercetein released ([3]; from scaffold of Example 1, de-ionized water and PBS, 37° C., over 68 days)","Quercetein released ([3]; from scaffold, de-ionized water and PBS, over 60 days)","solubility in ethanol compared with that of Quercetein ([1]; ethanol, from comparison of release results)","Genistein released ([3]; from scaffold of Example 3 (200 μm/scaffold), ethanol, early 5 days)","Genistein released ([3]; from scaffold of Example 3, de-ionized water and PBS, over 55 days, without early acute release)",SMILES,"proliferation of osteoblasts (MC3T3-E1 cells; 1 μM, day 3 and day 5)","effect on the proliferation of osteoblasts (MC3T3-E1 cells; 200 μM, day 3 and day 5, comparison with Alendronate)","proliferation of osteoblasts (MC3T3-E1 cells; concentration increased from 1 to 200 μM, vs non-treated group, day 1, 3, 5)",preferable concentration (osteoblast proliferation) (MC3T3-E1 cells; [4]),"inhibition of osteoclast proliferation, ranking among Quercetein, Genistein, Alendronate ([2]; 200 μM)",proliferation of osteoclasts [2],"promoting effect on osteoblast proliferation relative to Quercetein (MC3T3-E1 cells; 1 μM, day 3 and day 5)","proliferation of osteoblasts (MC3T3-E1 cells; concentration increased from 1 to 10 μM, vs non-treated group)",proliferation of osteoblasts (MC3T3-E1 cells; concentration over 10 μM),most preferable concentration (osteoblast proliferation) (MC3T3-E1 cells; [4]),"inhibition of osteoclast proliferation, ranking among Quercetein, Genistein, Alendronate ([2]; 1 μM)"
low,100%,10%,approximately 50%,50%,,,,O=c1c(O)c(-c2ccc(O)c(O)c2)oc2cc(O)cc(O)c12 [Quercetein],promoted the proliferation of osteoblasts,increased the proliferation significantly,increased Quercetein dose-dependently,1˜200 μM,most excellent in inhibiting the proliferation of osteoclasts,significantly inhibited,,,,,
low,,,,,even higher,100%,60%,O=c1c(-c2ccc(O)cc2)coc2cc(O)cc(O)c12 [Genistein],promoted the proliferation of osteoblasts,,,1˜10 μM,,significantly inhibited,greater than that of Quercetein,increased,rather inhibited,1 µM,most excellent in inhibiting the proliferation of osteoclasts
